Patent US20250163055A1, “POLYMORPH OF JAK TYROSINE KINASE INHIBITOR AND PREPARATION METHOD THEREFOR” (Prime Gene Therapeutics Co., Ltd., priority 2022, published 2025)
Entries after “also recorded” stand apart in the source; their conditions may differ.

What was measured:
[1] = Drug concentration in the skin after topical administration to skin for 24 hours; assay type: in vivo, rat; settings: topical gel
Description: The solid powders of Examples 1 and 6, and the hydrogel preparations thereof were taken, and the PK values of rats administered by oral gavage and transdermal application were respectively determined. Male SD rats were divided into groups, 3 rats in each group, and were administered the compounds obtained in Examples 1 and 6 by oral gavage (oral group). administered Example 1 intravenously (intravenous group), and administered the gel preparations prepared from the compounds of Examples 1 and 6 topically to the skin (transdermal group). Animals were fasted overnight before the experiment, and the fasting time ranged from 10 hours before administration to 4 hours after administration. Blood was collected at 0.25, 0.5, 1, 2, 4, 6, 8 and 24 hours after administration in oral group and transdermal group, and at 0.083, 0.25, 0.5, 1, 2, 4, 6, 8 and 24 hours after administration in intravenous group. […] Plasma was extracted by protein precipitation method, and the extract was analyzed by LC/MS/MS. The transdermal group was administered for 24 hours and the skin at the administration site was peeled off after washing off the epidermal drug, and the drug content in the skin was analyzed by LC/MS/MS after homogenization.

[2] = Transdermal test of gel preparations (transdermal rate); assay type: in vitro ADME; settings: gel preparation; receiving medium 5.0% Tween 80, pH 5.5 phosphate
Text: Take the crystal obtained in Examples 1 or 6 and prepare it into gel preparation (the process for preparing the gel preparation can be: after stirring PEG400, propylene glycol, glycerin, ethanol and the crystal of Example 1 or 6, mix with EDTA aqueous solution, add in the swelled carbomer aqueous solution, adjust pH to be 6 with 10% triethanolamine solution, to obtain the gel). Measure respective transdermal rate (receiving medium 5.0% Tween 80, pH 5.5 phosphate).

[3] = Pharmacokinetic experiment in male SD rats (oral, intravenous, transdermal); assay type: in vivo, rat; settings: oral group (gavage)
Description: The solid powders of Examples 1 and 6, and the hydrogel preparations thereof were taken, and the PK values of rats administered by oral gavage and transdermal application were respectively determined. Male SD rats were divided into groups, 3 rats in each group, and were administered the compounds obtained in Examples 1 and 6 by oral gavage (oral group). administered Example 1 intravenously (intravenous group), and administered the gel preparations prepared from the compounds of Examples 1 and 6 topically to the skin (transdermal group). Animals were fasted overnight before the experiment, and the fasting time ranged from 10 hours before administration to 4 hours after administration. Blood was collected at 0.25, 0.5, 1, 2, 4, 6, 8 and 24 hours after administration in oral group and transdermal group, and at 0.083, 0.25, 0.5, 1, 2, 4, 6, 8 and 24 hours after administration in intravenous group. After being anesthetized with isoflurane using a small animal anesthesia machine, 0.3 mL of whole blood was collected through the fundus venous plexus and placed in a heparin anticoagulant tube. The blood samples were centrifuged at 4° C. and 4000 rpm for 5 min, and plasma was transferred to a centrifuge tube and placed at −80° C. until analysis. Plasma was extracted by protein precipitation method, and the extract was analyzed by LC/MS/MS. The transdermal group was administered for 24 hours and the skin at the administration site was peeled off after washing off the epidermal drug, and the drug content in the skin was analyzed by LC/MS/MS after homogenization.

[4] = Long-term (24-months) stability of crystal forms; assay type: physicochemical; settings: for stability of the crystal form (result in words): long-term stability investigation, summary; for Appearance / Content / Crystal Form / Loss on Drying / Related Substances, Most Unknown Impurity / Related Substances, Total Impurities: long-term stability
Text: The crystals prepared in examples 1, 3 and 6 were selected, and the stability of the crystal forms 1, IIa and IIb was investigated in accordance with the stability research guidelines issued by the National Medical Product Administration. The crystals were packed in pharmaceutical low-density polyethylene bags, and 24 months long-term stability was investigated.

[5] = Stability of crystal form III on standing (NMR); assay type: physicochemical
Description: 15 mg of 2-{3-[3-amino-4-(7H-pyrrolo[2,3-d]pyrimidin-4-yl)-1H-pyrazol-1-yl]-1-(isopropylsulfonyl)azetidin-3-yl}acetonitrile was added to 3 mL of dioxane, then heated to 40° C. to dissolve and the obtained solution is clear. After filtration, the solution was volatilized and crystallized at 40° C. to obtain crystal form III.

## CC(C)S(=O)(=O)N1CC(CC#N)(n2cc(-c3ncnc4[nH]ccc34)c(N)n2)C1 [Example 6, 2-{3-[3-amino-4-(7H-pyrrolo[2,3-d]pyrimidin-4-yl)-1H-pyrazol-1-yl]-1-(isopropylsulfonyl)azetidin-3-yl}acetonitrile crystal form IIb]
[1]
  drug concentration retained in animal skin relative to crystal form I: up to 7 times
[2]
  transdermal performance / transdermal absorption (result in words): inferior to crystal form I in transdermal absorption
[3]
  AUC(0-inf): 537 ng·h/mL
  Cmax: 114 ng/mL
  F: 22%
  T1/2: 3.40 h
  Tmax: 3.17 h
[4]
  stability of the crystal form (result in words): better chemical stability; also recorded: good stability
[4]; 0 month
  Appearance: Off-white
  Content: 99.7%
  Crystal Form: IIb
  Loss on Drying: 0.36%
  Related Substances, Most Unknown Impurity: 0.07%
  Related Substances, Total Impurities: 0.38%
[4]; 3 months
  Appearance: Off-white
  Content: 99.7%
  Crystal Form: IIb
  Loss on Drying: 0.36%
  Related Substances, Most Unknown Impurity: 0.08%
  Related Substances, Total Impurities: 0.38%
[4]; 6 months
  Appearance: Off-white
  Content: 99.6%
  Crystal Form: IIb
  Loss on Drying: 0.39%
  Related Substances, Most Unknown Impurity: 0.08%
  Related Substances, Total Impurities: 0.37%
[4]; 9 months
  Appearance: Off-white
  Content: 99.5%
  Crystal Form: IIb
  Loss on Drying: 0.34%
  Related Substances, Most Unknown Impurity: 0.08%
  Related Substances, Total Impurities: 0.38%
[4]; 12 months
  Appearance: Off-white
  Content: 99.6%
  Crystal Form: IIb
  Loss on Drying: 0.30%
  Related Substances, Most Unknown Impurity: 0.07%
  Related Substances, Total Impurities: 0.37%
[4]; 18 months
  Appearance: Off-white
  Content: 99.6%
  Crystal Form: IIb
  Loss on Drying: 0.31%
  Related Substances, Most Unknown Impurity: 0.07%
  Related Substances, Total Impurities: 0.39%
[4]; 24 months
  Appearance: Off-white
  Content: 99.7%
  Crystal Form: IIb
  Loss on Drying: 0.32%
  Related Substances, Most Unknown Impurity: 0.08%
  Related Substances, Total Impurities: 0.39%

## CC(C)S(=O)(=O)N1CC(CC#N)(n2cc(-c3ncnc4[nH]ccc34)c(N)n2)C1 [Example 8, 2-{3-[3-amino-4-(7H-pyrrolo[2,3-d]pyrimidin-4-yl)-1H-pyrazol-1-yl]-1-(isopropylsulfonyl)azetidin-3-yl}acetonitrile crystal form III]
[5]
  crystallinity and stability (result in words): poor crystallinity and stability
[5]; after standing
  impurities generated after standing (nuclear magnetic resonance): about 10%

## CC(C)S(=O)(=O)N1CC(CC#N)(n2cc(-c3ncnc4[nH]ccc34)c(N)n2)C1 [Example 3, 2-{3-[3-amino-4-(7H-pyrrolo[2,3-d]pyrimidin-4-yl)-1H-pyrazol-1-yl]-1-(isopropylsulfonyl)azetidin-3-yl}acetonitrile crystal form IIa]
[4]
  stability of the crystal form (result in words): gradually absorbed water during standing and was transformed into crystal form IIb
[4]; 0 month
  Appearance: Off-white powder
  Content: 99.8%
  Crystal Form: IIa
  Loss on Drying: 0.06%
  Related Substances, Most Unknown Impurity: 0.06%
  Related Substances, Total Impurities: 0.28%
[4]; 3 months
  Appearance: Off-white powder
  Content: 97.6%
  Crystal Form: IIb
  Loss on Drying: 0.18%
  Related Substances, Most Unknown Impurity: 0.08%
  Related Substances, Total Impurities: 0.28%
[4]; 6 months
  Appearance: Off-white powder
  Content: 97.8%
  Crystal Form: IIb
  Loss on Drying: 0.19%
  Related Substances, Most Unknown Impurity: 0.11%
  Related Substances, Total Impurities: 0.27%
[4]; 9 months
  Appearance: Off-white powder
  Content: 97.9%
  Crystal Form: IIb
  Loss on Drying: 0.24%
  Related Substances, Most Unknown Impurity: 0.06%
  Related Substances, Total Impurities: 0.24%
[4]; 12 months
  Appearance: Off-white powder
  Content: 97.8%
  Crystal Form: IIb
  Loss on Drying: 0.20%
  Related Substances, Most Unknown Impurity: 0.09%
  Related Substances, Total Impurities: 0.22%
[4]; 18 months
  Appearance: Off-white powder
  Content: 98.0%
  Crystal Form: IIb
  Loss on Drying: 0.16%
  Related Substances, Most Unknown Impurity: 0.07%
  Related Substances, Total Impurities: 0.26%
[4]; 24 months
  Appearance: Off-white powder
  Content: 97.8%
  Crystal Form: IIb
  Loss on Drying: 0.25%
  Related Substances, Most Unknown Impurity: 0.08%
  Related Substances, Total Impurities: 0.29%
